Experimental findings from patent US12012467B2, “Small molecule DCN1 inhibitors and therapeutic methods using the same” (THE REGENTS OF THE UNIVERSITY OF MICHIGAN, priority 2017, dated 2024) are described below.

The experiment has as its target DCN1 (Homo sapiens (Human), UniProt Q96GG9). The experiment is described as follows: Competitive FP binding assay. A digest of the protocol: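 FP competition with DCN1 in 100 mM phosphate pH 6.5, 0.02% Tween-20, 2% DMSO, probe 5 nM final. Equilibrated 30 min at room temperature with shaking. DCN1 was His6-tagged (uncleaved), expressed in E. coli Rosetta2 and purified by Ni-NTA and gel filtration.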

Where [1] appears, read: read-out: Binding affinity to DCN1 (IC50 (nM)).
Where [2] appears, read: bounds given in μM, read-out: Binding affinity to DCN1 (IC50).

Structures are written as SMILES. Read-outs that look alike come from different tables or passages of the source. Square brackets hold non-standard residues; d marks the D form. Peptide text beside a SMILES is read from it. * marks the point of attachment. Ala(6-iPr-benzothiazol-2-yl) = CC(C)c1ccc2nc(C[C@H](N)C(=O)O)sc2c1; 2Nal = N[C@@H](Cc1ccc2ccccc2c1)C(=O)O; Cha = N[C@@H](CC1CCCCC1)C(=O)O; Isobutyryl = CC(C)C(=O)*; Lac = C[C@H](O)C(=O)O; NHBn = c1ccc(CN*)cc1; Propionyl = CCC(=O)*; Moc = COC(=O)* Some results are limits rather than exact numbers.

As usually defined, the IC50 is the concentration that gives 50% inhibition.

Sequence of DCN1 (Q96GG9 58-259): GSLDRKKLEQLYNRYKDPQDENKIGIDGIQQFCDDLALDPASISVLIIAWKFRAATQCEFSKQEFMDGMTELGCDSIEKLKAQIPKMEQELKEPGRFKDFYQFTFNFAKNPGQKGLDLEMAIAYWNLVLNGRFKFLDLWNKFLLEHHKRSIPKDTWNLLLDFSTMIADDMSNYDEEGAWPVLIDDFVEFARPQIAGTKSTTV

For the molecule `CCC(=O)N[C@@H](Cc1nc2ccc(C(C)C)cc2s1)C(=O)N[C@H](CO)C1CCCCC1` [Example 81, (S)—N—((S)-1-cyclohexyl-2-hydroxyethyl)-3-(6-isopropylbenzo[d]thiazol-2-yl)-2-propionamidopropanamide], the IC50 under setting [1] is 127 nM. With `CCC(=O)N[C@@H](Cc1nc2ccc(Cl)cc2s1)C(=O)N[C@H](CN)CC1CCCCC1` [Example 218], under setting [1], the IC50 is 316 nM.

`CCC(=O)N[C@@H](Cc1ccc2ccccc2c1)C(=O)N[C@H](C(=O)N[C@@H](CCCCN)C(=O)N[C@H]1CNCc2ccccc21)C1CCCC1` [Example 159]: under setting [2], the half-inhibitory concentration (IC50) was above 3000 nM. In the case of `CC(C)C(=O)N[C@@H](Cc1nc2ccc(C(C)C)cc2s1)C(=O)NCCN` [Example 95], the IC50 under setting [2] is above 10000 nM. For the molecule `CCC(=O)N[C@@H](Cc1ccc2ccccc2c1)C(=O)N[C@H](C(=O)N[C@@H](CCCCN)C(=O)N[C@@H]1CCOc2cc(Cl)ccc21)C1CCCC1` [Example 165], the IC50 under setting [1] turned out to be 122 nM.

For `CCC(=O)N[C@@H](Cc1nc2ccc(C(C)C)cc2s1)C(=O)N[C@H](Cn1cc(CO)nn1)C1CCCCC1` [Example 83], the IC50 under setting [1] amounted to 656 nM. Consider `CCC(=O)N[C@@H](Cc1nc(C)c(-c2ccccc2)s1)C(=O)N[C@H](CN)Cc1ccccc1` [Example 101], for which, under setting [1], the IC50 turned out to be 1740 nM. For the molecule `CCC(=O)N[C@@H](Cc1nc2ccc(CC)cc2s1)C(=O)N[C@H](C(=O)N[C@@H](CC1CCN(C)CC1)C(=O)N[C@@H]1CCOc2ccccc21)C1CCOCC1` [Example 193], under setting [1], the IC50 was 171 nM.

Turning to `CCC(=O)N[C@@H](Cc1nc2ccc(Br)cc2s1)C(=O)N[C@H](CN)Cc1ccccc1` [Example 222], the IC50 under setting [1] stood at 858 nM. For the molecule `CCC(=O)N[C@@H](Cc1nc2ccc(C(C)C)cc2s1)C(=O)N[C@H](CNS(=O)(=O)C1CCNCC1)C1CCCCC1` [DI-777], the IC50 under setting [1] was 55.3 nM. On the same count and under the same terms, the value for `CCC(=O)N[C@@H](Cc1nc2ccc(C(C)C)cc2s1)C(=O)N[C@H](CNC(=O)NC1CCN(C)CC1)C1CCCCC1` [Example 75] was 75.6 nM. For the molecule `CC[C@H](C)[C@@H](CN)NC(=O)[C@@H](N)Cc1nc2ccc(C(C)C)cc2s1` [Example 49, (S)-2-amino-N-((2S,3S)-1-amino-3-methylpentan-2-yl)-3-(6-isopropylbenzo[d]thiazol-2-yl)propanamide], the IC50 under setting [2] was above 10000 nM. Regarding `CCC(=O)N[C@@H](Cc1nc2ccc(C(C)C)cc2s1)C(=O)N[C@H](CNC(=O)CCN1CCOCC1)Cc1ccccc1` [Example 93], under setting [1], the IC50 came to 89.9 nM. Turning to `CCC(=O)N[C@H](CNC(=O)C1(N)CCC(C)(C)CC1)Cc1nc2ccc(C(C)C)cc2s1` [Example 269], the IC50 under setting [2] is above 10000 nM. Turning to `CCC(=O)N[C@@H](Cc1nc2ccc(Cl)cc2s1)C(=O)N[C@H](C(=O)N[C@@H](CCCCN)C(=O)N[C@@H]1CCOc2cccc(Cl)c21)C1CCCC1` [Example 172], the IC50 under setting [1] came out at 121 nM. With `CC(C)c1ccc2nc(C[C@H](NC(=O)C3CC3)C(=O)NCCN)sc2c1` [Example 96], the IC50 under setting [2] is above 10000 nM. Consider `CCC(=O)N[C@@H](Cc1nc2cccc(Cl)c2s1)C(=O)N[C@H](C(=O)N[C@@H](CCCCN)C(=O)NC(c1ccccc1)c1ccccc1)C1CCCC1` [Example 31], for which the 50% inhibitory concentration (IC50) under setting [1] is 137 nM. On the same count and under the same terms, in the case of `CCC(=O)N[C@@H](Cc1nc2ccc(C(C)C)cc2s1)C(=O)N[C@H](CNS(=O)(=O)C1CCN(C)CC1)C1CCCCC1` [Example 76] it was 65.7 nM. For `CCC(=O)N[C@@H](Cc1nc2ccc(Cl)cc2s1)C(=O)NCCN` [Example 235], under setting [2], the IC50 is above 10000 nM. The same measure, in the same setting: in the case of `CCC(=O)N[C@@H](Cc1nc(C)c(-c2cccnc2)s1)C(=O)N[C@H](CN)Cc1ccccc1` [Example 229] it was above 10000 nM. Turning to `CCC(=O)N[C@@H](Cc1nc2ccc(C(C)C)cc2s1)C(=O)N[C@H](CNC(=O)C1CCN(C(C)C)CC1)C1CCCCC1` [Example 71], the IC50 under setting [1] stood at 110 nM. As to `CCC(=O)N[C@@H](Cc1nc2ccc(F)cc2s1)C(=O)N[C@H](C(=O)N[C@@H](CCCCN)C(=O)NC(c1ccccc1)c1ccccc1)C1CCCC1` [Example 28], the IC50 under setting [1] was 413 nM.

As for `CCC(=O)N[C@H](CNC(=O)C1(N)CCCC1)Cc1nc2ccc(C(C)C)cc2s1` [Example 114], the IC50 under setting [1] came to 1560 nM.

Take `CCC(=O)N[C@@H](Cc1nc2ccc(CC)cc2s1)C(=O)N[C@H](C(=O)N[C@@H](CCCCN)C(=O)N[C@@H]1CCOc2ccccc21)C1CCOCC1` [Example 186]: the concentration for half-maximal inhibition (IC50) under setting [1] was 169 nM. As to `CCC(=O)N[C@@H](Cc1nc2ccc(Cl)cc2s1)C(=O)N[C@H](C(=O)N[C@@H](CCCCN)C(=O)N[C@@H]1CCOc2ccccc21)C1CCNCC1` [Example 35], the IC50 under setting [2] was above 5000 nM. Still for that read-out and setting: in the case of `CCC(=O)N[C@@H](Cc1ccc2ccccc2c1)C(=O)N[C@H](C(=O)N[C@@H](CCCCN)C(=O)NC1CCCCC1)[C@@H](C)CC` [Example 8] it was above 3000 nM.

For `CCC(=O)N[C@@H](Cc1ccc2ccccc2c1)C(=O)N[C@@H](CC1CCCCC1)C(=O)N[C@@H](CCCCN)C(=O)NC(c1ccccc1)c1ccccc1` [Example 21], the IC50 under setting [1] is 290 nM. Turning to `CCC(=O)N[C@@H](Cc1nc2ccc(C(C)C)cc2s1)C(=O)N[C@@H](CC1CCCCC1)C(=O)N[C@@H](CCCCN)C(=O)N[C@@H](CC(C)C)C(N)=O` [Example 289] (Propionyl-[Ala(6-iPr-benzothiazol-2-yl)][Cha]KL-NH2), the half-maximal inhibitory concentration (IC50) under setting [1] stood at 138 nM. Still for that read-out and setting: in the case of `CCC(=O)N[C@@H](Cc1nc2ccc(C)cc2s1)C(=O)N[C@H](C(=O)N[C@H](C(=O)N[C@@H]1CCOc2ccccc21)C1CCNCC1)C1CCOCC1` [Example 190] it was 412 nM. As for `COCCC(=O)N[C@@H](Cc1nc2ccc(Cl)cc2s1)C(=O)NCCN` [Example 236], under setting [2], the IC50 was above 10000 nM. For `CCC(=O)N[C@H](CNC(=O)Nc1ccccc1)Cc1nc2ccc(Cl)cc2s1` [Example 258], the IC50 under setting [1] came out at 3920 nM.

For `CC[C@H](C)[C@H](NC(=O)[C@H](Cc1ccc2ccccc2c1)NC(=O)[C@H](C)O)C(=O)N[C@@H](CCCCN)C(=O)N[C@@H](CC(C)C)C(N)=O` [Example 168] (H-[Lac][2Nal]IKL-NH2), the 50% inhibitory concentration (IC50) under setting [2] is above 10000 nM. For the molecule `CCC(=O)N[C@@H](Cc1nc2ccc(Cl)cc2s1)C(=O)N[C@H](C(=O)N[C@@H](CCCCN)C(=O)N[C@@H]1CNCc2ccccc21)C1CCOCC1` [Example 43], the IC50 under setting [1] came to 84.3 nM.

With `CCC(=O)N[C@@H](Cc1nc2ccc(C(C)(C)C)cc2s1)C(=O)N[C@H](CN)Cc1ccccc1` [Example 223], the IC50 under setting [1] worked out at 949 nM. Consider `CCC(=O)N[C@@H](Cc1nc(C)c(-c2cccc(Br)c2)s1)C(=O)N[C@H](CN)Cc1ccccc1` [Example 232], for which the IC50 under setting [1] amounted to 984 nM. For `CCC(=O)N[C@@H](Cc1nc2ccc(C(C)C)cc2s1)C(=O)N[C@H](CNC(=O)c1ccncc1)C1CCCCC1` [Example 61], the half-inhibitory concentration (IC50) under setting [1] was determined as 128 nM. On the same count and under the same terms, the value for `CCC(=O)N[C@@H](Cc1nc(C)c(-c2cccc(Cl)c2)s1)C(=O)N[C@H](CN)Cc1ccccc1` [Example 103] was 264 nM; that for `CC[C@H](C)[C@H](NC(=O)[C@H](Cc1nc2ccc(C(C)C)cc2s1)NC(=O)C(C)C)C(=O)N[C@@H](CCCCN)C(=O)N[C@@H](CC(C)C)C(N)=O` [Example 275] (Isobutyryl-[Ala(6-iPr-benzothiazol-2-yl)]IKL-NH2) was 77.8 nM. `CCC(=O)N[C@@H](Cc1cccnc1)C(=O)N[C@H](C(=O)N[C@@H](CCCCN)C(=O)NC(c1ccccc1)c1ccccc1)[C@@H](C)CC` [Example 133]: the IC50 under setting [2] is above 10000 nM.

With `CCC(=O)N[C@@H](Cc1nc2ccc(CC)cc2s1)C(=O)N[C@H](C(=O)N[C@@H](CCCCN)C(=O)NC(c1ccccc1)c1ccccc1)C1CCCC1` [Example 174], the IC50 under setting [1] stood at 77.5 nM. For `NCCNC(=O)[C@H](Cc1nc2ccc(Cl)cc2s1)NC(=O)CCOCc1ccccc1` [Example 238], the half-inhibitory concentration (IC50) under setting [2] is above 10000 nM.

Take `CCC(=O)N[C@@H](Cc1nc2ccc(Cl)cc2s1)C(=O)N[C@H](C(=O)N[C@@H](CCCCN(C)C)C(=O)N[C@@H]1CN(C)Cc2ccccc21)C1CCCC1` [Example 40]: under setting [1], the IC50 was 163 nM. In the case of `CCC(=O)N[C@@H](Cc1nc(C)c(C(C)C)s1)C(=O)N[C@H](CN)Cc1ccccc1` [Example 99], under setting [2], the half-inhibitory concentration (IC50) is above 10000 nM.

As to `CCC(=O)N[C@@H](Cc1nc2ccc(C(C)C)cc2s1)C(=O)N[C@H](CNc1ccncn1)C1CCCCC1` [Example 78], the IC50 under setting [1] was determined as 189 nM.

In the case of `CC[C@H](C)[C@H](NC(=O)[C@@H](N)Cc1ccc2ccccc2c1)C(=O)N[C@@H](CCCCN)C(=O)N[C@@H](CC(C)C)C(N)=O` [Example 142] (H-[2Nal]IKL-NH2), the IC50 under setting [2] is above 10000 nM. As to `CCC(=O)N[C@@H](Cc1ccc2ccccc2c1)C(=O)N[C@H](C(=O)N[C@@H](CCCCN)C(=O)NC(c1ccccc1)c1ccccc1)C1CCCCC1` [Example 20], the IC50 under setting [1] came out at 341 nM. On the same count and under the same terms, the value for `CCC(=O)N[C@@H](Cc1nc2ccc(CC)cc2o1)C(=O)N[C@H](C(=O)N[C@@H](CCCCN)C(=O)N[C@@H]1CCOc2ccccc21)C1CCCC1` [Example 195] was 120 nM; that for `CCC(=O)N[C@@H](Cc1ccc2ccccc2c1)C(=O)N[C@H](C(=O)N[C@@H](CCCCN)C(=O)NCc1ccccc1)[C@@H](C)CC` [Example 10] (Propionyl-[2Nal]-Ile-Lys-NHBn) was 3900 nM; that for `CCC(=O)N[C@@H](Cc1nc2ccc(C(C)C)cc2s1)C(=O)N[C@H](C(=O)NCCN1CCOCC1)C1CCN(C(=O)OC(C)(C)C)CC1` [Example 264] was 1500 nM. On the same count and under the same terms, in the case of `CCC(=O)N[C@@H](Cc1nc2ccc(C)cc2s1)C(=O)N[C@H](C(=O)N[C@@H](CCCCN(C)C)C(=O)N[C@@H]1CCOc2ccccc21)C1CCOCC1` [Example 188] it was 156 nM; in that of `CCC(=O)N[C@@H](Cc1nc2ccc(Cl)cc2s1)C(=O)N[C@H](CN)C1CCCC1` [Example 216], 559 nM. With `CC[C@H](C)[C@H](NC(=O)[C@H](Cc1nc2ccc(C(C)C)cc2s1)NC(=O)OC)C(=O)N[C@@H](CCCCN)C(=O)N[C@@H](CC(C)C)C(N)=O` [Example 279] (Moc-[Ala(6-iPr-benzothiazol-2-yl)]IKL-NH2), the IC50 under setting [1] came to 217 nM. In the case of `CCC(=O)N[C@@H](Cc1nc(C)c(-c2ccncc2)s1)C(=O)N[C@H](CN)Cc1ccccc1` [Example 230], the IC50 under setting [2] is above 10000 nM.
